Results from patent US20260285866A1, “MODULATORS OF TRPML, THEIR COMPOSITIONS AND METHODS OF USE” (Caraway Therapeutics, Inc., priority 2024, published 2026).

Experiments:
[1] = test system: TRPMLs; details: high concentrations needed; background statement; cited from earlier work
[2] = molecular target: T1, Human TRPML3 (Homo sapiens, UniProt Q8TDD5); experiment: Fluorescent TRPML3 assay (as for TRPML1); format: cell-based; details: fluorescent calcium assay as for TRPML1, TRPML3 subtype
T1 construct: expressed in transfected cells
T1 sequence (Q8TDD5 1-553): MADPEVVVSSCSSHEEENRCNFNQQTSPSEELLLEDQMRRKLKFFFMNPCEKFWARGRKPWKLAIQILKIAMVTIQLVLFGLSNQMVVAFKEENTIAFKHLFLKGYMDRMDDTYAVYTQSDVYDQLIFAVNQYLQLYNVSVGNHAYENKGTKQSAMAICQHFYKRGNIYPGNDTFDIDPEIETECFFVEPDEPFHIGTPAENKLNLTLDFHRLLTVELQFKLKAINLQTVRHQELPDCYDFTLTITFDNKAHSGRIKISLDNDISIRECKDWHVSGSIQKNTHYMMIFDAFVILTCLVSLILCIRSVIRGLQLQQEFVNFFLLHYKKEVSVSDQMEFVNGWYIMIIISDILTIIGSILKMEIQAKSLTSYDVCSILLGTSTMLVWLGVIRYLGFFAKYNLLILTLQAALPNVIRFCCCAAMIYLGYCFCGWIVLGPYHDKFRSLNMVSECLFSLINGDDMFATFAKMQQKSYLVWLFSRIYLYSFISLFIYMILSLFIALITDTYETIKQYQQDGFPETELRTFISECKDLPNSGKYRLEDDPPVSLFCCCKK
In short: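 Tet-inducible HEK-293 Trex cells expressing human TRPML2 or TRPML3, induced overnight with 0.5 μg/mL doxycycline, loaded with 1 μM Fluo4-AM and suspended in Ringer's solution with 10 mM calcium. Compounds tested in triplicate from 20 μM to 6 nM final in half-log steps; fluorescence at 480/540 nm. EC50 by non-linear regression, binned A–D.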

[3] = molecular target: Human TRPML1 (Homo sapiens, UniProt Q9GZU1, L15A/L16A/L577A/L578A); experiment: Fluorescent TRPML1 assay (Fluo4-AM, HEK-293 Trex cells expressing hTRPML1); format: cell-based; details: fluorescent calcium assay, doxycycline-induced hTRPML1
Human TRPML1, sequence (Q9GZU1 whole entry L15A/L16A/L577A/L578A): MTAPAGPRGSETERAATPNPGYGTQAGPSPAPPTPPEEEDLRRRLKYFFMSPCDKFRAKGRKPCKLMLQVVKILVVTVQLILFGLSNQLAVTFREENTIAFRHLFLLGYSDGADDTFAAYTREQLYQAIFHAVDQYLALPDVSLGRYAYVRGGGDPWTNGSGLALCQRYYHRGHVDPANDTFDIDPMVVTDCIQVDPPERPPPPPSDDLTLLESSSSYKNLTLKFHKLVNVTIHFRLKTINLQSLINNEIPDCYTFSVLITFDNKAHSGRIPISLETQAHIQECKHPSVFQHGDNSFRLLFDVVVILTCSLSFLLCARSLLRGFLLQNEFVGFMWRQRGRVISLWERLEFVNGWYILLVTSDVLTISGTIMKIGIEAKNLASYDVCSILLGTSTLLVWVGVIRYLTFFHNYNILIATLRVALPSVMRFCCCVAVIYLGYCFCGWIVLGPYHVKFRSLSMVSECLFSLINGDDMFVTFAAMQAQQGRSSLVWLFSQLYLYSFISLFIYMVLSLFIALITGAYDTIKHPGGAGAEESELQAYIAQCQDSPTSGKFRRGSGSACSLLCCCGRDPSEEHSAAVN
In short: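 Doxycycline-induced (0.5 μg/mL) HEK-293 Trex cells stably expressing surface-targeted mutant hTRPML1, loaded with 1 μM Fluo4-AM, then suspended in modified Ringer's with 10 mM calcium and added to compounds (20 μM to 6 nM final, half-log steps, triplicate). Fluorescence read at ex 480/em 540; percent activity versus plate controls, EC50 by non-linear regression.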

[4] = molecular target: T2, Human TRPML2 (Homo sapiens, UniProt Q8IZK6); experiment: Fluorescent TRPML2 assay (as for TRPML1); format: cell-based; details: fluorescent calcium assay as for TRPML1, TRPML2 subtype
T2 construct: expressed in transfected cells
T2 sequence (Q8IZK6 1-566): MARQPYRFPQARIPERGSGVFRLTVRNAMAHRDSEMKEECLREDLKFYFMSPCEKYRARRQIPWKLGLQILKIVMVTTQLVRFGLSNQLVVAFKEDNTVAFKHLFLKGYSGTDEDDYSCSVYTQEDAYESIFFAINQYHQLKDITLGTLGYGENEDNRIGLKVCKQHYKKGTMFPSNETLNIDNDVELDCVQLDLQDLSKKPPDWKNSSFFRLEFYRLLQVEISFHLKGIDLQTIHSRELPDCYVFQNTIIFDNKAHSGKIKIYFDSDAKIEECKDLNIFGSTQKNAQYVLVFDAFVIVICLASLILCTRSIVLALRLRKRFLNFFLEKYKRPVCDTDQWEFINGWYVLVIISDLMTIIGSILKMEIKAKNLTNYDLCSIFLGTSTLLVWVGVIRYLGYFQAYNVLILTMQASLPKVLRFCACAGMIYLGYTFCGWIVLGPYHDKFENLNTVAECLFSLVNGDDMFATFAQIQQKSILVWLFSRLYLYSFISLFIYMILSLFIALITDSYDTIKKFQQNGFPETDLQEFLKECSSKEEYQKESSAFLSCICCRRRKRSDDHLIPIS
Method: HEK-293 Trex cells were stably transfected with a construct consisting of the human coding sequence for TRPML1 cloned into the tet-inducible plasmid pCDNA5 T/O. Mutations were introduced into the TRPML1 sequence to facilitate expression on the cell surface (Silvia Vergarajauregui, Rosa Puertollano Traffic. 2006 March; 7(3): 337-353). Briefly, the cells are cultured in 150 mm round tissue culture dishes containing 20 mL of media. The day before the assay the cells are rinsed with DPBS-Ca-Mg and then treated briefly with Trypsin-EDTA. The Trypsin-EDTA is diluted with growth media, and cells are counted. 38×10^6 cells are re-plated into 150 mm round tissue culture dishes in media containing 0.5 μg/mL doxycycline to induce expression of hTRPML1.
The day of the experiment cells are lifted from the plates as above and collected by centrifugation. The cells are then suspended in dye loading buffer consisting of Ringer's solution supplemented with 0.1% Pluronic Acid and 1 micromolar Fluo4-AM dye. Cells are loaded for ~60 minutes in the dark with occasional mixing. The cells are collected by centrifugation, the loading media aspirated, and the cells resuspended in 25 mL Ringer's solution and incubated ~60 minutes in the dark. The cells are again collected by centrifugation, rinsed in Ringer's Solution and resuspended to 0.2×10^6 cells/mL in modified Ringer's solution containing 10 mM calcium.
Compounds are dissolved to a concentration of 10 millimolar with DMSO. Compound plates are created by dispensing compounds into 384 well black wall clear bottom plates (Greiner 781091). Positive and negative controls are included on each plate. Typically, different amounts of each compound are tested ranging from 100 nanoMoles (20 micromolar final concentration) decreasing in half-log steps to 31 picoMoles (6 nanomolar final concentration). Each concentration is typically tested in triplicate.
50 microliters of dye-loaded cells are dispensed into each well of the compound assay plate created above. The fluorescence in each well is then determined with an excitation wavelength of 480 nm and an emission wavelength of 540 nm using either a Molecular Devices SpectraMax multimode plate reader or a Hamamatsu FDSS/uCell plate imager.
The resulting fluorescence for each well is exported as an ascii file and loaded into our LIMS for analysis. The percent activity of each compound at each concentration is determined by comparison to the positive and negative control wells included in each plate.
Assays for TRPML2 and TRPML3 were performed as above for TRPML1, by substituting the appropriate TRPML2 or TRPML3 subtype for the TRPML1.
EC50 values were calculated using a non-linear regression of Prism. In the table, “A” indicates an EC50 of less than 100 nM, “B” indicates an EC50 range from 100 nM to 500 nM: “C” indicates an EC50 range from 500 nM to 2 μM; and “D” indicates an EC50 greater than 2 μM.

Structure (SMILES) | concentration needed to effectively activate TRPMLs [1] | EC50 [2] | EC50 [3] | EC50 [4]
CC1CC(C)(C)N(C(=O)CN2C(=O)c3ccccc3C2=O)c2ccccc21 (stereo not shown) [ML-SA1, Mucolipin Synthetic Agonist I] | ~ 10 μM |  |  | 
COC1(C(=O)N2C[C@H](C)N(c3ncnc4c3c(-c3ccccc3F)cn4-c3cc(C#N)ccn3)C[C@H]2C)CN(C)C1 [Compound 163, 2-(5-(2-fluorophenyl)-4-((2S,5R)-4-(3-methoxy-1-methylazetidine-3-carbonyl)-2,5-dimethylpiperazin-1-yl)-7H-pyrrolo[2,3-d]pyrimidin-7-yl)isonicotinonitrile] |  | < 100 nM | < 100 nM | > 2000 nM
CCC(O)(CC)C(=O)N1C[C@H](C)N(c2ncnc3c2c(-c2ccccc2)cn3-c2cc(C#N)ccn2)C[C@H]1C [Compound 108, 2-(4-((2S,5R)-4-(2-ethyl-2-hydroxybutanoyl)-2,5-dimethylpiperazin-1-yl)-5-phenyl-7H-pyrrolo[2,3-d]pyrimidin-7-yl)isonicotinonitrile] |  | 100 to 500 nM | < 100 nM | 500 to 2000 nM
